From patent US20250270170A1, “2,3-DIMETHOXY-5-METHYL-1,4-BENZOQUINONE ALKYL ALCOHOL DERIVATIVE AND USE THEREOF” (BEIJING ANJIANXI BIO-MEDICAL TECHNOLOGY CO., LTD., priority 2021, published 2025)
Several values for one entry are separate records, joined by “and”; a condition that tells them apart may be missing. Equal values may be shown once.

Key:
[1] = test system: cisplatin-induced acute kidney damage in mice; assay: Example 11: serum urea nitrogen (Bun) in cisplatin-induced acute kidney damage model; assay type: in vivo, C57BL/6J mice; conditions: for serum urea nitrogen value vs model group: P>0.05; for Urea nitrogen (Bun) level after the assay, x (mean): group mean; for Urea nitrogen (Bun) level after the assay, x (mean) / Urea nitrogen (Bun) level after the assay: cisplatin model; for Urea nitrogen (Bun) level after the assay: individual animals No. 1-7
Protocol: 42 male C57BL/6J mice (age: 6 to 8 weeks, body weight 18-20 g, certificate number: 11400700238365) were purchased from Si Pei Fu (Beijing) Biotechnology Co., Ltd., and raised in an SPF-grade animal room of the Institute of Materia Medica, Chinese Academy of Medical Sciences, at a temperature of 20 to 25° C., a relative humidity of 40% to 70%, and a cycle of 12 hours of light and 12 hours of dark. The animals had free access to water and food. After 3 days of normal feeding, mice with good physical conditions after the veterinary examination were selected for this assay. Before grouping, a marker was used to mark on the base of the animals' tail. After grouping, each animal was marked with an ear cutout (7 mice in each group).
Assay animals: 42 7-week-old male C57 mice were used for animal testing after an adaptive feeding.
Group 1: blank control group;
The preparation of the R01 formulation administration test solution was the same as that in Example 5: an appropriate amount of the R01 formulation was weighed according to the three dosages set in the assay, respectively, and an appropriate volume of 0.5% CMC-Na aqueous solution was added. The mixture was vortexed and sonicated until mixed evenly, to give the administration test solutions with concentrations of […], respectively, which were ready for use.
Animal testing period: 7 days (excluding adaptive feeding), hereinafter referred to as: D1-D7.
1. The first group was a solvent control group: N=7, all mice were males (the same below); • a) 0.5% solution of sodium carboxymethyl cellulose was gavagely administered from D1 to D6 (twice a day for each animal, with an interval of 8 hours between the morning and the afternoon). • b) Physiological saline was intraperitoneally injected in one-time on D4. • c) On D7, blood was collected from the orbit for euthanasia (300 ul of serum was extracted), the left kidney was fixed in formaldehyde, and the right kidney was preserved in liquid nitrogen (WB study may be carried out).
1) The concentrations of urea nitrogen and creatinine in peripheral blood serum were tested.
The body weight of the animals when being grouped for administration in each group was recorded. The body weight and the kidney weight at the end of the assay were also recorded, and the kidney coefficient was calculated. The creatinine and urea nitrogen values in the blood samples sent for testing were recorded. The kidneys were stained with HE and PAS, and the slides were scanned. A report was issued after the pathological analysis.
The assay data were calculated and processed statistically using Microsoft Office Excel 2007 software. Unless otherwise specified, the data were expressed as mean±standard error (Mean±SE), and t-test was used for comparison between two groups.

A549 cells = assay: Cell EDU proliferation assay, A549; assay type: cell-based, human; conditions: 150 μM
Protocol: The compound of formula (I) at a concentration of 150 μM was co-cultured with the cells for 42 h, and then the FBS concentration in the FBS stimulation well was increased to 20%. The cells were cultured for another 6 h, and then detected using a Cell-Light EDUApollo567 kit.
(1) Cells in the logarithmic growth phase were taken, and inoculated into a 24-well culture plate at 1×10^4 cells per well. The culture plate was cultured in a 37° C. incubator under the condition of 5% CO2, and drug was added according to the assay design when the cells adhered to the wall.
(2) After the drug treatment, the Cell-Light EDU Apollo567 kit was taken out. The reagent A in the kit was diluted with 1640 complete culture medium at a ratio of 1000:1 to prepare a 50 μM EDU culture medium, 300 μl of which was configured to each well of the 24-well plate. The 24-well plate was taken out from the incubator, and the original culture medium was aspirated with a vacuum aspirator. […]
(12) 150 μl of PBS was added to each well to wash once, and the PBS was discarded. Then, 200 μl of PBS was added, and the plate was placed on an inverted fluorescence microscope to take pictures. 6 fields of view were taken for each well under a 200× field of view, and the proportion of EDU-positive cells among 100 cells was calculated. […]

COC1=C(OC)C(=O)C(CCCCCCCCCCOC(=O)Cc2c(C)n(C(=O)c3ccc(Cl)cc3)c3ccc(OC)cc23)=C(C)C1=O [compound of formula (I)]
serum urea nitrogen value ([1]; R01 high-dosage group (36 mg/kg bid) with cisplatin 10 mg/kg, P<0.05): significantly lower than that of the model group
serum urea nitrogen value vs model group ([1]; R01 low-dosage group (6 mg/kg bid) with cisplatin 10 mg/kg): no significant difference
serum urea nitrogen value vs model group ([1]; R01 medium-dosage group (18 mg/kg bid) with cisplatin 10 mg/kg): no significant difference
Urea nitrogen (Bun) level after the assay, x (mean) ([1]; R01 6 mg/kg): 16.1 mg/dL
Urea nitrogen (Bun) level after the assay, x (mean) ([1]; R01 18 mg/kg): 16.1 mg/dL
Urea nitrogen (Bun) level after the assay, x (mean) ([1]; R01 36 mg/kg): 13.7 mg/dL
Urea nitrogen (Bun) level after the assay ([1]; R01 6 mg/kg, listed as R01, 6 mg/kg): 28.3 mg/dL and 29.25 mg/dL and 10.62 mg/dL and 11.72 mg/dL and 13.85 mg/dL and 4.91 mg/dL and 14.1 mg/dL
Urea nitrogen (Bun) level after the assay ([1]; R01 18 mg/kg, listed as R01, 18 mg/kg): 13.41 mg/dL and 15.83 mg/dL and 19.59 mg/dL and 14.73 mg/dL and 10.38 mg/dL and 22 mg/dL and 16.55 mg/dL
Urea nitrogen (Bun) level after the assay ([1]; R01 36 mg/kg, listed as R01, 36 mg/kg): 12.39 mg/dL and 12.73 mg/dL and 14.32 mg/dL and 14.34 mg/dL and 9.98 mg/dL and 14 mg/dL and 17.8 mg/dL
proportion of proliferating cells (EDU) (A549 cells; 48 hours, vs CTL (0 μM)): significantly reduced
cell proliferation under FBS stimulation (EDU) (A549 cells; FBS increased to 20% for last 6 h): can inhibit the cell proliferation effect
